# According to US5393744A, “Glucosyl phosphotriesters of thymidine” (Institut Pasteur, priority 1988, dated 1995):
# How the values were obtained:
# [1] = system: recombinant retrovirus of murine origin (MoMLV); assay: Residual virus (clones of βgal+ cells) after infection of mouse 3T3 test cells with LacZ recombinant MoMLV retrovirus; format: cell-based; settings: 3T3 cells; for residual virus (% not inhibited) at 10 µM: 10^-5 M; for residual virus (% not inhibited) at 1 µM: 10^-6 M
# Experimental: The virus used is a recombinant retrovirus of murine origin (MoMLV) in which a reporter gene (LacZ) has been introduced.
# Fixed amounts of LacZ recombinant retroviruses are placed in the presence of mouse infectable test cells (3T3) with or without the product to be tested. To each recombinant retrovirus corresponds a clone of β gal^+ cells. The number of clones of βgal^+ cells is read 48 hours after the infection. The % of the residual virus (not inhibited by the product) is indicated in the following table (mean of several independent experiments): […]
# HIV-1 virus [2] = assay: Effect of the products on the infectious potency of the HIV-1 virus in human T lymphocytes (reverse transcriptase activity); format: cell-based, HIV-1 virus (LAV strain); settings: treatment after viral absorption (FIG. 2)
# Experimental: Each product was dissolved in DMSO at a concentration of 10^-3 M (stock solution), then in the culture medium immediately before use. The solution thus obtained was sterilized by filtration on a 0.22μ Millipore, then successive dilutions were made in the culture medium.
# The cultures of human T lymphocytes are maintained in the medium RPMI 1640 containing 10% fetal calf serum (Seromeal), 1% of glummine (Gibco), 1% of antibiotics (PSN, Gibco), 10% of interleukin II (Biotest), 2 μg/ml of polybrene (Sigma) and a 1/2500 dilution of α-human semm-interferon. This medium is called complete medium. […]
# Human lymphocytes stimulated beforehand by means of pHAp were infected by the HIV-1 virus (reverse transcriptase activity: 5000 cmp/10^6 cells). […] The viral production was monitored at each passage (and this for 13 days) by measuring the reverse transcriptase activity present in 1 ml of culture supernatant. […]
# The production of the HIV-1 virus by human T cells treated or not by each product was regularly monitored by measuring the reverse transcriptase activity present in 1 ml of culture supernatant. […] After 1 hour of incubation of 37° C., the acid-insoluble products are precipitated by 20% trichloroacetic acid, filtered on 0.45μ Millipore, then the β radioactivity contained in these reaction products is measured with the aid of a Kontron scintillation counter.
# HIV-1 virus [3] = assay: Infection of activated lymphocytes by the lysates of infected macrophages (co-culture, reverse transcriptase activity); format: cell-based
# Experimental: The drugs 6651, AZT, 6714 and ddT were diluted in DMSO.
# The virus HIV-1 utilized is derived from a culture supernatant of CEM-LAV 1 cells; these latter are maintained by the addition at each passage (every 3 or 4 days) of uninfected CEM cells. The titre of the virus in the clarified culture supernatant is higher than 10^6 cpm/ml in reverse transcriptase activity and 10^3 infectious units/ml on lymphocytes of sero-negative donors.
# The lymphocytes were isolated from the peripheral blood of sero-negative donors on a Ficoll^R gradient (MSL, Eurobio). The lymphocytes thus obtained were stimulated with the phytohemaglutinin p(PHA-p) for 3 days before their utilization.
# The lymphocytes are cultivated in RPMI 1640 medium, supplemented with 10% of fetal calf serum, 10% of interleukin 2, 2 μg/ml of polybrene, 1% of glutamine, 1% of antibiotics.
# The macrophages were obtained from a deleucocytation pocket. The mononucleated cells were separated on a Ficoll^R gradient. The cells were adjusted to 50.10^6 cells/ml in the RPMI 1640 medium (MBA) containing 20% fetal calf serum (Flow), 10 mM Hepes (Sigma), 1% of PSN and 1% of glutamine (Gibco). After 1 h of incubation at 4° C. with gentle shaking, the macrophages agglutinate among themselves. The agglutinated macrophages are sedimented for 15 mn at 4° C. The supernatant containing an enrichment in lymphocytes was removed and the pellet enriched in macrophages was diluted to 5.10^6 cells/ml in the medium previously described. The cell suspension was then placed in Petri dishes of 60 mm diameter and placed at 37° C. for 1 h 30. The unattached cells are removed and the washed cell carpet was then detached with a scraper. The cells thus recovered were used directly for the study.
# For this study, the production of HIV-1 virus by infected macrophages in the presence or absence of the drugs 6714 or ddT and 6651 or AZT were monitored either in continuous culture for at least 30 days or after lysis of the macrophages at day +14 and infection of lymphocytes by this lysate.
# The quantity of cells placed in culture and the conditions of infection are identical with those previously described.
# At day 14 after infection, the macrophages were lysed by two successive freezings to -20° C. and thawings at 37° C. The lysate recovered was then utilized as inoculum to infect 3.10^6 activated lymphocytes derived from a sero-negative donor. After 1 h of absorption, the lymphocytes were adjusted to 10^6 cells per ml and the drugs were added at the concentrations corresponding to those of the lysate.
# The lymphocytes were subcultured every 3 or 4 days and an assay of the reverse transcriptase was carried out starting from the culture supernatant at each passage.
# 3) Measurement of the reverse transcriptase activity
# The reverse transcriptase activity is assayed starting from 1 ml of culture supernatant concentrated 100 times by ultra-centrifugation for 5 mn at 95.000 rpm (Rotor TL 100^R Beckman).
# The pellet is resuspended in 10 μl of NTE Triton^R ×100 0.1%.
# After 1 h at 37° C., the acid-insoluble products are precipitated by 20% trichloroacetic acid, filtered onto 0.45μ Millipore^R and the B radioactivity is measured with the aid of a Kontron scintillation counter.
# [4] = NIH3T3, 48 hours after infection, mean of several experiments, read-out: % of the residual virus (not inhibited by the product)
Structure (SMILES),"residual virus (% not inhibited) at 100 µM ([1]; NIH3T3, 10^-4 M, 48 hours after infection, mean of several experiments, read-out: % of the residual virus (not inhibited by the product)) [%]","residual virus (% not inhibited) at 10 µM [1, 4] [%]","residual virus (% not inhibited) at 1 µM [1, 4] [%]",inhibition of the multiplication of the virus (HIV-1 virus [2]; 10^-5 M),viral production on the lymphocytes with the lysates of treated macrophages (HIV-1 virus [3]; 10^-5 M and 10^-6 M (FIG. 4c)),"multiplication of the HIV-1 virus at the interior of the macrophage (HIV-1 virus [3]; 10^-5 M and 10^-6 M, same result as AZT (no multiplication))",multiplication of the HIV-1 virus in the macrophages (HIV-1 virus [3]; 10^-7 M),viral production on the lymphocytes with the lysates of treated macrophages (HIV-1 virus [3]; 10^-7 M (FIG. 4c)),"residual virus (% not inhibited) at 0.1 µM ([1]; NIH3T3, 10^-7 M, 48 hours after infection, mean of several experiments, read-out: % of the residual virus (not inhibited by the product)) [%]",retroviral activity (in words) ([1]; recombinant MoMLV),inhibition of the multiplication of the virus (HIV-1 virus [2]; dose proportional),viral production by activated lymphocytes with lysates of infected treated macrophages (general statement) (HIV-1 virus [3]; lysate at day 14),"viral production by activated lymphocytes, compared to untreated lysate (HIV-1 virus [3]; whatever the concentration tested (5.10^-5 M, 10^-5 M))","multiplication of the HIV-1 virus in the macrophages (HIV-1 virus [3]; whatever the concentration tested, 5.10^-6 M or 10^-5 M)"
"CCCCCCCCCCCCCCCCOP(=O)(OC[C@H]1OC(O)[C@H](O)[C@@H](O)[C@@H]1O)OC[C@H]1O[C@@H](n2cc(C)c(=O)[nH]c2=O)C[C@@H]1N=[N+]=[N-] (stereo partly shown) [compound 6651, 6-glucosyl hexadecyl 5'-(3'-azido) thymidinyl phosphate]",11,65,94,total inhibition of the multiplication of the virus,no viral production is obtained on the lymphocytes,this same result is obtained,"there is multiplication of the HIV-1 virus in the macrophages, but the escape of the virus seems to be blocked",A low viral production is observed,–,–,–,–,–,–
"Cc1cn([C@H]2CC[C@@H](COP(=O)(O)OC[C@H]3OC(O)[C@H](O)[C@@H](O)[C@@H]3O)O2)c(=O)[nH]c1=O (stereo partly shown) [compound 6714, 6-glucosyl 5'-(3'-deoxy)-thymidinyl phosphate]",–,4,12,–,–,–,–,–,66,active by themselves,partial inhibition proportional to the dose of the product used,make it possible to obtain a vital production by activated lymphocytes,comparable to the untreated lysate,"there is multiplication of the HIV-1 virus in the macrophages, but the escape of the virus seems to be blocked"
